From the NIST ThermoML archive (doi:10.1021/acs.jced.9b00507)
Numbers after ± are expanded uncertainties.

Assay: xn = mol fraction of the nth substance listed
Settings: 100 kPa, Liquid; for viscosity: Concentric cylinders viscometry; for mass density: Vibrating tube method

CCCCCCn1cc[n+](C)c1.O=[N+]([O-])[O-] [1-hexyl-3-methylimidazolium nitrate] + CCCCCCO
viscosity (293.15 K, x1 = 0.0816): 12.97 ± 1.1 mPa·s
viscosity (293.15 K, x1 = 0.1604): 24.15 ± 2 mPa·s
viscosity (293.15 K, x1 = 0.2391): 39.81 ± 3.2 mPa·s
viscosity (293.15 K, x1 = 0.3502): 76.74 ± 6.2 mPa·s
viscosity (293.15 K, x1 = 0.4409): 123.03 ± 10 mPa·s
viscosity (293.15 K, x1 = 0.5592): 207.01 ± 17 mPa·s
viscosity (293.15 K, x1 = 0.6508): 296.48 ± 25 mPa·s
viscosity (293.15 K, x1 = 0.7395): 414.95 ± 35 mPa·s
viscosity (293.15 K, x1 = 0.8502): 581.11 ± 50 mPa·s
viscosity (293.15 K, x1 = 0.9391): 707.52 ± 62 mPa·s
viscosity (293.15 K, x1 = 1): 804.17 ± 70 mPa·s
mass density (293.15 K, x1 = 0.0816): 859 ± 1.3 kg/m3
mass density (293.15 K, x1 = 0.1604): 894.1 ± 1.3 kg/m3
mass density (293.15 K, x1 = 0.2391): 925.7 ± 1.3 kg/m3
mass density (293.15 K, x1 = 0.3502): 965.4 ± 1.2 kg/m3
mass density (293.15 K, x1 = 0.4409): 994.2 ± 1.2 kg/m3
mass density (293.15 K, x1 = 0.5592): 1027.7 ± 1.2 kg/m3
mass density (293.15 K, x1 = 0.6508): 1050.9 ± 1.2 kg/m3
mass density (293.15 K, x1 = 0.7395): 1071.2 ± 1.2 kg/m3
mass density (293.15 K, x1 = 0.8502): 1093.7 ± 1.3 kg/m3
mass density (293.15 K, x1 = 0.9391): 1110 ± 1.4 kg/m3
mass density (293.15 K, x1 = 1): 1120.3 ± 1.4 kg/m3
viscosity (298.15 K, x1 = 0.0816): 8.79 ± 0.72 mPa·s
viscosity (298.15 K, x1 = 0.1604): 14.35 ± 1.2 mPa·s
viscosity (298.15 K, x1 = 0.2391): 22.49 ± 1.8 mPa·s
viscosity (298.15 K, x1 = 0.3502): 39.81 ± 3.2 mPa·s
viscosity (298.15 K, x1 = 0.4409): 63.83 ± 5.2 mPa·s
viscosity (298.15 K, x1 = 0.5592): 109.9 ± 9 mPa·s
viscosity (298.15 K, x1 = 0.6508): 167.11 ± 14 mPa·s
viscosity (298.15 K, x1 = 0.7395): 243.78 ± 20 mPa·s
viscosity (298.15 K, x1 = 0.8502): 367.28 ± 31 mPa·s
viscosity (298.15 K, x1 = 0.9391): 473.22 ± 40 mPa·s
viscosity (298.15 K, x1 = 1): 545.25 ± 47 mPa·s
mass density (298.15 K, x1 = 0.0816): 855.2 ± 1.3 kg/m3
mass density (298.15 K, x1 = 0.1604): 890.1 ± 1.3 kg/m3
mass density (298.15 K, x1 = 0.2391): 921.7 ± 1.3 kg/m3
mass density (298.15 K, x1 = 0.3502): 961.4 ± 1.2 kg/m3
mass density (298.15 K, x1 = 0.4409): 990.2 ± 1.2 kg/m3
mass density (298.15 K, x1 = 0.5592): 1023.9 ± 1.2 kg/m3
mass density (298.15 K, x1 = 0.6508): 1047.2 ± 1.2 kg/m3
mass density (298.15 K, x1 = 0.7395): 1067.7 ± 1.2 kg/m3
mass density (298.15 K, x1 = 0.8502): 1090.5 ± 1.3 kg/m3
mass density (298.15 K, x1 = 0.9391): 1107.1 ± 1.4 kg/m3
mass density (298.15 K, x1 = 1): 1117.5 ± 1.4 kg/m3
viscosity (303.15 K, x1 = 0.0816): 6.53 ± 0.53 mPa·s
viscosity (303.15 K, x1 = 0.1604): 10 ± 0.81 mPa·s
viscosity (303.15 K, x1 = 0.2391): 15.42 ± 1.2 mPa·s
viscosity (303.15 K, x1 = 0.3502): 26 ± 2.1 mPa·s
viscosity (303.15 K, x1 = 0.4409): 39.54 ± 3.2 mPa·s
viscosity (303.15 K, x1 = 0.5592): 66.53 ± 5.4 mPa·s
viscosity (303.15 K, x1 = 0.6508): 101.16 ± 8.2 mPa·s
viscosity (303.15 K, x1 = 0.7395): 149.28 ± 12 mPa·s
viscosity (303.15 K, x1 = 0.8502): 233.88 ± 19 mPa·s
viscosity (303.15 K, x1 = 0.9391): 315.5 ± 26 mPa·s
viscosity (303.15 K, x1 = 1): 369.14 ± 31 mPa·s
mass density (303.15 K, x1 = 0.0816): 851.5 ± 1.3 kg/m3
mass density (303.15 K, x1 = 0.1604): 886.2 ± 1.3 kg/m3
mass density (303.15 K, x1 = 0.2391): 917.6 ± 1.3 kg/m3
mass density (303.15 K, x1 = 0.3502): 957.2 ± 1.2 kg/m3
mass density (303.15 K, x1 = 0.4409): 986.1 ± 1.2 kg/m3
mass density (303.15 K, x1 = 0.5592): 1019.9 ± 1.2 kg/m3
mass density (303.15 K, x1 = 0.6508): 1043.3 ± 1.2 kg/m3
mass density (303.15 K, x1 = 0.7395): 1063.9 ± 1.2 kg/m3
mass density (303.15 K, x1 = 0.8502): 1087 ± 1.3 kg/m3
mass density (303.15 K, x1 = 0.9391): 1103.7 ± 1.4 kg/m3
mass density (303.15 K, x1 = 1): 1114.3 ± 1.4 kg/m3
viscosity (308.15 K, x1 = 0.0816): 5.01 ± 0.4 mPa·s
viscosity (308.15 K, x1 = 0.1604): 6.95 ± 0.56 mPa·s
viscosity (308.15 K, x1 = 0.2391): 9.64 ± 0.78 mPa·s
viscosity (308.15 K, x1 = 0.3502): 15.85 ± 1.3 mPa·s
viscosity (308.15 K, x1 = 0.4409): 23.71 ± 1.9 mPa·s
viscosity (308.15 K, x1 = 0.5592): 40.36 ± 3.3 mPa·s
viscosity (308.15 K, x1 = 0.6508): 63.1 ± 5.1 mPa·s
viscosity (308.15 K, x1 = 0.7395): 95.67 ± 7.8 mPa·s
viscosity (308.15 K, x1 = 0.8502): 157.61 ± 13 mPa·s
viscosity (308.15 K, x1 = 0.9391): 216.41 ± 18 mPa·s
viscosity (308.15 K, x1 = 1): 257.59 ± 21 mPa·s
mass density (308.15 K, x1 = 0.0816): 847.7 ± 1.3 kg/m3
mass density (308.15 K, x1 = 0.1604): 882.4 ± 1.3 kg/m3
mass density (308.15 K, x1 = 0.2391): 913.8 ± 1.3 kg/m3
mass density (308.15 K, x1 = 0.3502): 953.4 ± 1.2 kg/m3
mass density (308.15 K, x1 = 0.4409): 982.3 ± 1.2 kg/m3
mass density (308.15 K, x1 = 0.5592): 1016.1 ± 1.2 kg/m3
mass density (308.15 K, x1 = 0.6508): 1039.6 ± 1.2 kg/m3
mass density (308.15 K, x1 = 0.7395): 1060.2 ± 1.2 kg/m3
mass density (308.15 K, x1 = 0.8502): 1083.5 ± 1.3 kg/m3
mass density (308.15 K, x1 = 0.9391): 1100.4 ± 1.4 kg/m3
mass density (308.15 K, x1 = 1): 1111.1 ± 1.4 kg/m3
viscosity (313.15 K, x1 = 0.0816): 3.92 ± 0.32 mPa·s
viscosity (313.15 K, x1 = 0.1604): 5.11 ± 0.41 mPa·s
viscosity (313.15 K, x1 = 0.2391): 6.87 ± 0.55 mPa·s
viscosity (313.15 K, x1 = 0.3502): 10.64 ± 0.86 mPa·s
viscosity (313.15 K, x1 = 0.4409): 15.42 ± 1.2 mPa·s
viscosity (313.15 K, x1 = 0.5592): 25.7 ± 2.1 mPa·s
viscosity (313.15 K, x1 = 0.6508): 40.74 ± 3.3 mPa·s
viscosity (313.15 K, x1 = 0.7395): 63.17 ± 5.1 mPa·s
viscosity (313.15 K, x1 = 0.8502): 107.2 ± 8.7 mPa·s
viscosity (313.15 K, x1 = 0.9391): 151.34 ± 12 mPa·s
viscosity (313.15 K, x1 = 1): 185.67 ± 15 mPa·s
mass density (313.15 K, x1 = 0.0816): 843.9 ± 1.3 kg/m3
mass density (313.15 K, x1 = 0.1604): 878.5 ± 1.3 kg/m3
mass density (313.15 K, x1 = 0.2391): 909.9 ± 1.3 kg/m3
mass density (313.15 K, x1 = 0.3502): 949.6 ± 1.2 kg/m3
mass density (313.15 K, x1 = 0.4409): 978.5 ± 1.2 kg/m3
mass density (313.15 K, x1 = 0.5592): 1012.3 ± 1.2 kg/m3
mass density (313.15 K, x1 = 0.6508): 1035.8 ± 1.2 kg/m3
mass density (313.15 K, x1 = 0.7395): 1056.5 ± 1.2 kg/m3
mass density (313.15 K, x1 = 0.8502): 1079.9 ± 1.3 kg/m3
mass density (313.15 K, x1 = 0.9391): 1096.9 ± 1.4 kg/m3
mass density (313.15 K, x1 = 1): 1107.8 ± 1.4 kg/m3
viscosity (318.15 K, x1 = 0.0816): 3.2 ± 0.26 mPa·s
viscosity (318.15 K, x1 = 0.1604): 3.92 ± 0.32 mPa·s
viscosity (318.15 K, x1 = 0.2391): 5.06 ± 0.41 mPa·s
viscosity (318.15 K, x1 = 0.3502): 7.53 ± 0.61 mPa·s
viscosity (318.15 K, x1 = 0.4409): 10.79 ± 0.87 mPa·s
viscosity (318.15 K, x1 = 0.5592): 18.71 ± 1.5 mPa·s
viscosity (318.15 K, x1 = 0.6508): 29.04 ± 2.4 mPa·s
viscosity (318.15 K, x1 = 0.7395): 46.03 ± 3.7 mPa·s
viscosity (318.15 K, x1 = 0.8502): 78.87 ± 6.4 mPa·s
viscosity (318.15 K, x1 = 0.9391): 114.4 ± 9.3 mPa·s
viscosity (318.15 K, x1 = 1): 140.18 ± 11 mPa·s
mass density (318.15 K, x1 = 0.0816): 840.1 ± 1.3 kg/m3
mass density (318.15 K, x1 = 0.1604): 874.7 ± 1.3 kg/m3
mass density (318.15 K, x1 = 0.2391): 906.1 ± 1.3 kg/m3
mass density (318.15 K, x1 = 0.3502): 945.8 ± 1.2 kg/m3
mass density (318.15 K, x1 = 0.4409): 974.8 ± 1.2 kg/m3
mass density (318.15 K, x1 = 0.5592): 1008.7 ± 1.2 kg/m3
mass density (318.15 K, x1 = 0.6508): 1032.2 ± 1.2 kg/m3
mass density (318.15 K, x1 = 0.7395): 1053.1 ± 1.2 kg/m3
mass density (318.15 K, x1 = 0.8502): 1076.5 ± 1.3 kg/m3
mass density (318.15 K, x1 = 0.9391): 1093.7 ± 1.4 kg/m3
mass density (318.15 K, x1 = 1): 1104.7 ± 1.4 kg/m3
viscosity (323.15 K, x1 = 0.0816): 2.63 ± 0.21 mPa·s
viscosity (323.15 K, x1 = 0.1604): 3.1 ± 0.25 mPa·s
viscosity (323.15 K, x1 = 0.2391): 3.84 ± 0.31 mPa·s
viscosity (323.15 K, x1 = 0.3502): 5.55 ± 0.45 mPa·s
viscosity (323.15 K, x1 = 0.4409): 8.02 ± 0.65 mPa·s
viscosity (323.15 K, x1 = 0.5592): 13.49 ± 1.1 mPa·s
viscosity (323.15 K, x1 = 0.6508): 21.63 ± 1.8 mPa·s
viscosity (323.15 K, x1 = 0.7395): 36.13 ± 2.9 mPa·s
viscosity (323.15 K, x1 = 0.8502): 63.1 ± 5.1 mPa·s
viscosity (323.15 K, x1 = 0.9391): 91.12 ± 7.4 mPa·s
viscosity (323.15 K, x1 = 1): 110.94 ± 9 mPa·s
mass density (323.15 K, x1 = 0.0816): 836.2 ± 1.3 kg/m3
mass density (323.15 K, x1 = 0.1604): 870.7 ± 1.3 kg/m3
mass density (323.15 K, x1 = 0.2391): 902.2 ± 1.3 kg/m3
mass density (323.15 K, x1 = 0.3502): 942 ± 1.2 kg/m3
mass density (323.15 K, x1 = 0.4409): 971 ± 1.2 kg/m3
mass density (323.15 K, x1 = 0.5592): 1005 ± 1.2 kg/m3
mass density (323.15 K, x1 = 0.6508): 1028.7 ± 1.2 kg/m3
mass density (323.15 K, x1 = 0.7395): 1049.5 ± 1.2 kg/m3
mass density (323.15 K, x1 = 0.8502): 1073.1 ± 1.3 kg/m3
mass density (323.15 K, x1 = 0.9391): 1090.4 ± 1.4 kg/m3
mass density (323.15 K, x1 = 1): 1101.6 ± 1.4 kg/m3
